Columns and labels:
Assay type in all cases: physicochemical
[1] = Ozone stability of dye coatings in an ozone chamber; conditions: Epson paper; about 10 PPM ozone; 16 hours, 8 lamp cycles
[2] = Light stability of dye coatings on receiver papers, cool white fluorescent bulbs at 2,500 ft. candles; conditions: cool white fluorescent 2,500 ft. candles
Protocol: (§1) Experiments were carried out with Kodak® Premium Glossy Paper (available from Eastman Kodak Company, Rochester, N.Y.), Epson Premium Glossy Photo Paper (available from Epson Corporation) and Somerset Radiant White watercolor paper (a 100% cotton fiber paper with little or no sizing).
(§2) The dye samples were prepared by initially making a concentrated ink jet fluid (Fluid A) with 35.2% 1,5-pentanediol, 24.8% 2-pyrollidinone, 20% trimethylolpropane and 20% water (by weight). Two parts by weight of Fluid A were diluted with eight parts of water to form Fluid B consisting of approximately 7% 1,5-pentanediol, 5% 2-pyrollidinone, 4% trimethylolpropane and 84% water.
(§3) The test fluids were prepared by dissolving approximately 20 mg of dye with heating and vortex stirring into 1 gram of Fluid B. Once a clear fluid was obtained, the fluid was coated on the ink jet receiver material with a #4 Meyer rod. The coating was dried and the reflection density was measured. When the density was not in the range of from 0.7 to 1.3 the test fluid was diluted with additional Fluid B and the coatings repeated until the reflection density was in the range specified above.
(§4) Samples of the dyes were applied to the papers in a thin film as described above, air dried and the sample exposed in a Xenon arc at 10,000 ft. candles and also to cool white fluorescent bulbs with an irradiance of 2,500 ft. candles.

[3] = Light stability of dye coatings on receiver papers, Xenon arc at 10,000 ft. candles; conditions: for % Density Loss (Y) after 5 Day Xe Arc, Epson / % Density Loss (Y) after 5 Day Xe Arc, Kodak / % Density Loss (Y) after 5 Day Xe Arc, Watercolor: 5 days
Protocol: as §1, §2, §3, §4
This example illustrates the light stability of the dyes of formulas V–XV in xenon arc testing. The tests were carried out as described in Example II.
The ozone tests were conducted in an ozone chamber constructed from a large Pyrex jar having a volume of approximately 1.2 ft.^3 and a low temperature mercury-argon lamp (Oriel 6035). Ozone was produced in situ by the direct photolysis of oxygen in the ambient air within the chamber. A fan in the chamber ensured that all the samples were uniformly exposed to the ozone. The lamp power supply was energized under the control of a timer such that the lamp was on for 15 minutes every two hours thereby producing an average ozone concentration of about 10 PPM (24 mg/m^3). The test was carried out for 16 hours, or 8 lamp cycles. The ozone tests were carried out on Epson paper. The light stability experiments were carried out for 5 days at […] on Kodak Glossy Paper.

Row | % Loss in Density, Ozone [1] | % Density Loss after 3 weeks under fluorescent light, Epson ([2]; Epson paper) | % Density Loss after 3 weeks under fluorescent light, Kodak ([2]; Kodak paper) | % Density Loss after 3 weeks under fluorescent light, Watercolor ([2]; watercolor paper) | % Density Loss (Y) after 5 Day Xe Arc, Epson ([3]; Epson Premium Glossy Photo Paper, Xenon arc 10,000 ft. candles) | % Loss in Density, Light ([3]; Kodak Glossy Paper, 5 days at 10,00 ft. candles) | % Density Loss (Y) after 5 Day Xe Arc, Kodak ([3]; Kodak Premium Glossy Paper, Xenon arc 10,000 ft. candles) | % Density Loss (Y) after 5 Day Xe Arc, Watercolor ([3]; Somerset Radiant White watercolor paper, Xenon arc 10,000 ft. candles) | % Density Loss (Y) after 5 Day Xe Arc, Epson ([3]; Table IV, Epson paper, Xenon arc as in Example II) | % Density Loss (Y) after 5 Day Xe Arc, Kodak ([3]; Table IV, Kodak paper, Xenon arc as in Example II) | % Density Loss (Y) after 5 Day Xe Arc, Watercolor ([3]; Table IV, watercolor paper, Xenon arc as in Example II) | SMILES
1 | −29% | 1% | −51% | −7% | −7% | −90% | −85% | −23% | – | – | – | Cc1nn(-c2ccc(S(=O)(=O)[O-])cc2)c(O)c1N=Nc1ccc(S(=O)(=O)[O-])cc1C(=O)[O-].[Na+].[Na+].[Na+] [Control, 2-[5-hydroxy-3-methyl-1-(4-sulfophenyl)-1H-pyrazol-4-ylazo]-5-sulfobenzoic acid sodium salt]
2 | – | – | – | – | – | – | – | – | 17% | −52% | −19% | Cc1nn(-c2ccc(S(=O)(=O)[O-])cc2)c2c1N=Nc1ccc(S(=O)(=O)[O-])cc1C(=O)[O][Co][O]2.O.[Na+].[Na+] [VI]
